# Laboratory results reported in the supplement of paper PMC11208160.
# Assay: recombinant barcode read abundance after kanamycin selection (control-corrected) (log10(CPM+1)); higher = more efficient recombination; sequences stand for … in AGTGCAGAGAAAATCGGCCAGTTTTCTCTGCCTGCAGTCCGCATGCCGT…AGATTTATGCAGCGGACTGCCTTTCTCCCAAAGTGATAAACCGGACAGTATCATGGACCGGTTTTCCCGGTAATCCGTATTTGCAAGGTTGGTTTCACT; site = the 11-nt target
# Outline: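 Targets and IS621 bridge RNA target-binding loops were paired in oligos, each with a promoter, a barcode and the J23119-driven first 104 bridge RNA bases. A vector carrying the remaining 73 bp and a T7-inducible recombinase received these by Gibson cloning, and the pool was co-electroporated into E. coli with a donor plasmid. Duplicate plates contained chloramphenicol/ampicillin LB agar (control) or chloramphenicol/ampicillin/kanamycin with 0.1 mM IPTG. Recombination efficiency comes from averaged, control-corrected counts per million of recombinant-junction barcodes, reported as log10(CPM+1).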
# 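Also: IS621 recombinase and bridge RNA in Escherichia coli cells.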
row,Sequence,recombinant barcode read abundance (log10)
1,TGTCTGCCTTGGGTTCTAACCTGTTGCCT (site TGTCTGCCTAG),0.295
2,TGTGAGTCTTGGGTTCTAACCTGTTGCAT (site TGTGAGTCTAA),0.107
3,TGTGAGTCTTGGGTTCTAACCTGTTGCAT (site TGTGAGTCTAC),0.856
4,TGTGAGTCTTGGGTTCTAACCTGTTGCAT (site TGTGAGTCTAG),0.149
5,TGTGAGTCTTGGGTTCTAACCTGTTGCAT (site TGTGAGTCTAT),1.7
6,TGTGATCCTTGGGTTCTAACCTGTTGCAT (site TGAGATTCTAT),0.0352
7,TGTGATCCTTGGGTTCTAACCTGTTGCAT (site TGTGATCCTAT),1.4
8,TGTGCAACTTGGGTTCTAACCTGTTGCTG (site ATGCTTGCTTG),0.353
9,TGTGCAACTTGGGTTCTAACCTGTTGCTG (site TGTGCAACTCA),0.284
10,TGTGGAGCTTGGGTTCTAACCTGTTGCCG (site TGTAGAGCTCG),0.448
11,TGTGGAGCTTGGGTTCTAACCTGTTGCCG (site TGTCGAGCTCG),0.469
12,TGTGGAGCTTGGGTTCTAACCTGTTGCCG (site TGTGGAGCTCG),1.24
13,TGTGGAGCTTGGGTTCTAACCTGTTGCCG (site TGTTGAGCTCG),0.00933
14,TGTGTCCCTTGGGTTCTAACCTGTTGCCT (site TGAGTCCCTAG),0.159
15,TGTGTCCCTTGGGTTCTAACCTGTTGCCT (site TGCGTCCCTAG),0.139
16,TGTGTCCCTTGGGTTCTAACCTGTTGCCT (site TGGGTCCCTAG),0.123
17,TGTGTCCCTTGGGTTCTAACCTGTTGCCT (site TGTGTCCCTAG),1.14
18,TGTTAGTCTTGGGTTCTAACCTGTTGCCG (site TGTTAGACTAG),0.0136
19,TGTTAGTCTTGGGTTCTAACCTGTTGCCG (site TGTTAGTCTCG),0.0597
20,TGTTCAGCTTGGGTTCTAACCTGTTGCCT (site CACAGGCCTCT),0.0146
21,TGTTCAGCTTGGGTTCTAACCTGTTGCCT (site TGTTCAGCTAG),0.066
22,TGTTCTACTTGGGTTCTAACCTGTTGCTT (site TGATCTACTAA),0.0326

row,Sequence,recombinant barcode read abundance (log10)
1,TGTTCTACTTGGGTTCTAACCTGTTGCTT (site TGCTCTACTAA),0.246
2,TGTTCTACTTGGGTTCTAACCTGTTGCTT (site TGGTCTACTAA),0.0191
3,TGTTCTACTTGGGTTCTAACCTGTTGCTT (site TGTTCTACTAA),0.0296
4,TGTTGAGCTTGGGTTCTAACCTGTTGCAG (site TGTAGAGCTCT),0.148
5,TGTTGAGCTTGGGTTCTAACCTGTTGCAG (site TGTTGAGCTCT),0.468
6,TGTTGGACTTGGGTTCTAACCTGTTGCTT (site TCTTAGACTAA),0.0262
7,TGTTGGACTTGGGTTCTAACCTGTTGCTT (site TGTTGGACTAA),0.16
8,TGTTGGTCTTGGGTTCTAACCTGTTGCTT (site GAACTCCCTCC),0.0579
9,TGTTGGTCTTGGGTTCTAACCTGTTGCTT (site TGTTGGTCTAA),0.0212
10,TGTTGTCCTTGGGTTCTAACCTGTTGCTG (site AACATAACTAC),0.141
11,TGTTGTCCTTGGGTTCTAACCTGTTGCTG (site TGTTGTCCTCA),0.0482
12,TGTTGTGCTTGGGTTCTAACCTGTTGCCT (site TGGCGTGCTAG),0.101
13,TGTTGTGCTTGGGTTCTAACCTGTTGCCT (site TGTTGTGCTAG),0.109
14,TTAAATCCTTGGGTTCTAACCTGTTGCCT (site ATAAATCCTAG),0.143
15,TTAAATCCTTGGGTTCTAACCTGTTGCCT (site CTAAATCCTAG),0.183
16,TTAAATCCTTGGGTTCTAACCTGTTGCCT (site GTAAATCCTAG),0.249
17,TTAAATCCTTGGGTTCTAACCTGTTGCCT (site TTAAATCCTAG),0.219
18,TTAACGGCTTGGGTTCTAACCTGTTGCCT (site TTAACGGCTAG),0.556
19,TTAACGGCTTGGGTTCTAACCTGTTGCCT (site TTCACGGCTAG),0.186
20,TTACAGGCTTGGGTTCTAACCTGTTGCCG (site GGCATCCCTTA),0.0374
21,TTACAGGCTTGGGTTCTAACCTGTTGCCG (site TTACAGGCTCG),1.13
22,TTACCAACTTGGGTTCTAACCTGTTGCCT (site TTACCAACTAG),1.61

row,Sequence,recombinant barcode read abundance (log10)
1,TTACCAACTTGGGTTCTAACCTGTTGCCT (site TTACCCACTAG),0.629
2,TTACCAACTTGGGTTCTAACCTGTTGCCT (site TTACCGACTAG),0.0912
3,TTACCAACTTGGGTTCTAACCTGTTGCCT (site TTACCTACTAG),0.12
4,TTACCGACTTGGGTTCTAACCTGTTGCCT (site TTACCAACTAG),1.23
5,TTACCGACTTGGGTTCTAACCTGTTGCCT (site TTACCCACTAG),0.242
6,TTACCGACTTGGGTTCTAACCTGTTGCCT (site TTACCGACTAG),2.33
7,TTACCGACTTGGGTTCTAACCTGTTGCCT (site TTACCTACTAG),0.0567
8,TTACGTCCTTGGGTTCTAACCTGTTGCGG (site TCACGTCCTCC),1.31
9,TTACGTCCTTGGGTTCTAACCTGTTGCGG (site TTACGTCCTCC),1.74
10,TTAGACCCTTGGGTTCTAACCTGTTGCAG (site AGGTCTACTTG),0.0942
11,TTAGACCCTTGGGTTCTAACCTGTTGCAG (site TTAGACCCTCT),3.46
12,TTAGACCCTTGGGTTCTAACCTGTTGCCT (site ATAGACCCTAG),1.3
13,TTAGACCCTTGGGTTCTAACCTGTTGCCT (site CTAGACCCTAG),1.11
14,TTAGACCCTTGGGTTCTAACCTGTTGCCT (site GTAGACCCTAG),0.341
15,TTAGACCCTTGGGTTCTAACCTGTTGCCT (site TTAGACCCTAG),2.99
16,TTAGACTCTTGGGTTCTAACCTGTTGCCT (site TTAGACTCTAG),2.48
17,TTAGACTCTTGGGTTCTAACCTGTTGCCT (site TTCGACGCTAG),0.172
18,TTAGACTCTTGGGTTCTAACCTGTTGCTA (site TTAGACTCTTA),2.36
19,TTAGACTCTTGGGTTCTAACCTGTTGCTA (site TTAGACTCTTG),1.25
20,TTAGAGACTTGGGTTCTAACCTGTTGCCT (site TTAGAGACTAG),2.32
21,TTAGAGACTTGGGTTCTAACCTGTTGCCT (site TTAGAGCCTAG),0.303
22,TTAGAGACTTGGGTTCTAACCTGTTGCCT (site TTAGAGGCTAG),1.4

row,Sequence,recombinant barcode read abundance (log10)
1,TTAGAGACTTGGGTTCTAACCTGTTGCCT (site TTAGAGTCTAG),0.195
2,TTAGATCCTTGGGTTCTAACCTGTTGCAT (site TTAGATCCTAT),1.62
3,TTAGATCCTTGGGTTCTAACCTGTTGCAT (site TTAGGTCCTCT),0.00789
4,TTAGGGCCTTGGGTTCTAACCTGTTGCCT (site TTAGGGACTAG),0.0406
5,TTAGGGCCTTGGGTTCTAACCTGTTGCCT (site TTAGGGCCTAG),0.719
6,TTAGGGCCTTGGGTTCTAACCTGTTGCCT (site TTAGGGGCTAG),0.0469
7,TTAGGGCCTTGGGTTCTAACCTGTTGCCT (site TTAGGGTCTAG),0.0494
8,TTAGGTCCTTGGGTTCTAACCTGTTGCTT (site TTAAGTCCTAT),0.357
9,TTAGGTCCTTGGGTTCTAACCTGTTGCTT (site TTAGGTCCTAA),1.64
10,TTAGTAGCTTGGGTTCTAACCTGTTGCCT (site TTAGTAGCTAG),1.84
11,TTAGTAGCTTGGGTTCTAACCTGTTGCCT (site TTAGTCGCTAG),0.0769
12,TTAGTAGCTTGGGTTCTAACCTGTTGCCT (site TTAGTGGCTAG),0.0632
13,TTAGTAGCTTGGGTTCTAACCTGTTGCCT (site TTAGTTGCTAG),0.0874
14,TTAGTCCCTTGGGTTCTAACCTGTTGCCT (site TTAGTACCTAG),0.113
15,TTAGTCCCTTGGGTTCTAACCTGTTGCCT (site TTAGTCCCTAG),2.42
16,TTAGTCCCTTGGGTTCTAACCTGTTGCCT (site TTAGTGCCTAG),0.202
17,TTAGTCCCTTGGGTTCTAACCTGTTGCCT (site TTAGTTCCTAG),0.0847
18,TTAGTGGCTTGGGTTCTAACCTGTTGCCT (site TTAGTAGCTAG),0.607
19,TTAGTGGCTTGGGTTCTAACCTGTTGCCT (site TTAGTCGCTAG),0.0499
20,TTAGTGGCTTGGGTTCTAACCTGTTGCCT (site TTAGTGGCTAG),0.978
